Test results: US12215093B2, “Bicyclic carboxamides and methods of use thereof” (Tempest Therapeutics, Inc., priority 2018, dated 2025)

Tests used:
EP4 = molecular target: T1, EP4 (Homo sapiens, UniProt P35408); assay: Functional calcium flux assay, EP4; type: cell-based; settings: stably transfected HEK293 cells; PGE2 10 nM; read-out: EP4 Ca2+-flux assay IC50
T1 construct: host or cells: stably transfected HEK293 cells co-expressing a promiscuous G protein and a clytin variant

EP2 = EP2 (Homo sapiens, UniProt P43116);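 also: functional calcium flux assay in stably transfected HEK293 cells expressing EP2 coupled via a promiscuous G protein, clytin luminescence read as area under the curve, 30 min compound preincubation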
Sequence of EP2 (P43116 whole entry): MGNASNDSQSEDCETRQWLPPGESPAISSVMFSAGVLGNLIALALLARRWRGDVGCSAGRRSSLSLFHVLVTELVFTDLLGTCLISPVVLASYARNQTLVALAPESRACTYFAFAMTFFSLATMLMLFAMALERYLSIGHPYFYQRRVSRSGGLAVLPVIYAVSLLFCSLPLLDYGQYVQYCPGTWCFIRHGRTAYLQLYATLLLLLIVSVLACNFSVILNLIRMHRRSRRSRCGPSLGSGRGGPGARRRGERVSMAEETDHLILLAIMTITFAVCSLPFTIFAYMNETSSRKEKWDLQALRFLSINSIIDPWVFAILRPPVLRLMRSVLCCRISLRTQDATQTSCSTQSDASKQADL

T1 sequence (P35408 whole entry): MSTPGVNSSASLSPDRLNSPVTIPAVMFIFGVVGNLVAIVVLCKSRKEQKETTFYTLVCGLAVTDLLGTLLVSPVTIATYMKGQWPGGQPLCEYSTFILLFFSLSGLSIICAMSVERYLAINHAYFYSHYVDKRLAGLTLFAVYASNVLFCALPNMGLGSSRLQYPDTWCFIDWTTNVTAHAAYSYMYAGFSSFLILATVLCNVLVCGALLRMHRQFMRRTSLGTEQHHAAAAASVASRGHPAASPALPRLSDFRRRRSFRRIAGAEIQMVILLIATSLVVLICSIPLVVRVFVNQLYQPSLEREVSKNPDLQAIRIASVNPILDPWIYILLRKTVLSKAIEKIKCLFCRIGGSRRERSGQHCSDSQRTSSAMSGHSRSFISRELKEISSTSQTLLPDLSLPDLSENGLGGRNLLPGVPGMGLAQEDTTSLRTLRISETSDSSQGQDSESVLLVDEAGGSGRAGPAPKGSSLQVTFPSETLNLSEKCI

Row | SMILES | IC50 (EP4) | IC50 (EP2)
1 | O=C(NC1CC2(C1)CC(C(=O)O)C2)c1ccc(Cl)c2ccn(Cc3ccc(-c4ccncc4)cc3)c12 (stereo not drawn) [Example 67, (Sa)-6-(4-Chloro-1-(4-(pyridin-4-yl)benzyl)-1H-indole-7-carboxamido)spiro[3.3]heptane-2-carboxylic acid] | 0.0066 µM | –
2 | O=C(NC1CC2(C1)CC(C(=O)O)C2)c1ccc(Cl)c2cnn(Cc3ccc(N4CC5CC5(C(F)F)C4)c(F)c3)c12 (racemic) [Example 76, (Sa)-6-(4-chloro-1-(4-((racemic)-1-(difluoromethyl)-3-azabicyclo[3.1.0]hexan-3-yl)-3-fluorobenzy1)-1H-indazole-7-carboxamido)spiro[3.3]heptane-2-carboxylic acid] | < 0.001 µM | 0.056 µM
3 | COc1ccc2cc(Cn3ncc4c(Cl)ccc(C(=O)N[C@H]5CC6(C5)C[C@H](C(=O)O)C6)c43)ccc2n1 (stereo partly drawn) [Example 175, (Sa)-6-(4-Chloro-1-((2-methoxyquinolin-6-yl)methyl)-1H-indazole-7-carboxamido)spiro[3.3]heptane-2-carboxylic acid] | 0.0056 µM | < 0.025 µM
4 | CCNC(=O)c1cc(-c2ccc(Cn3ccc4c(F)ccc(C(=O)NC5CC6(C5)CC(C(=O)O)C6)c43)cc2)ccn1 (stereo not drawn) [Example 61, (Sa)-6-(1-(4-(2-(ethylcarbamoyl)pyridin-4-yl)benzyl)-4-fluoro-1H-indole-7-carboxamido)spiro[3.3]heptane-2-carboxylic acid] | < 0.001 µM | < 0.025 µM
5 | COc1cc(-c2ccc(Cn3ccc4c(Cl)ccc(C(=O)NC5CC6(C5)CC(C(=O)O)C6)c43)cc2)ccn1 (stereo not drawn) [Example 69] | 0.0022 µM | 0.033 µM
6 | CCOc1nccc(-c2ccc(Cn3ccc4c(F)ccc(C(=O)NC5CC6(C5)CC(C(=O)O)C6)c43)cc2)n1 (stereo not drawn) [Example 58, (Sa)-6-(1-(4-(2-ethoxypyrimidin-4-yl)benzyl)-4-fluoro-1H-indole-7-carboxamido)spiro[3.3]heptane-2-carboxylic acid] | 0.0024 µM | 0.095 µM
7 | O=C(NC1CC2(C1)CC(C(=O)O)C2)c1ccc(Cl)c2cnn(Cc3ccc(-n4cccn4)cc3)c12 (stereo not drawn) [Example 73, (Sa)-6-(1-(4-(1H-pyrazol-1-yl)benzyl)-4-chloro-1H-indazole-7-carboxamido)spiro[3.3]heptane-2-carboxylic acid] | 0.0013 µM | 0.071 µM
8 | O=C(NC1CC2(C1)CC(C(=O)O)C2)c1ccc(F)c2ccn(Cc3ccc4cc(Br)ccc4c3)c12 (stereo not drawn) [Example 42, (Sa)-6-(1-((6-bromonaphthalen-2-yl)methyl)-4-fluoro-1H-indole-7-carboxamido)spiro[3.3]heptane-2-carboxylic acid] | < 0.001 µM | 0.037 µM
9 | CNC(=O)c1cccc(-c2ccc(Cn3ccc4c(F)ccc(C(=O)NC5CC6(C5)CC(C(=O)O)C6)c43)cc2)n1 (stereo not drawn) [Example 62, (Sa)-6-(4-fluoro-1-(4-(6-(methylcarbamoyl)pyridin-2-yl)benzyl)-1H-indole-7-carboxamido)spiro[3.3]heptane-2-carboxylic acid] | < 0.001 µM | 0.054 µM
10 | O=C(NC1CC2(C1)CC(C(=O)O)C2)c1ccc(F)c2ccn(Cc3ccc4cc(F)ccc4c3)c12 (stereo not drawn) [Example 37, (Sa)-6-(4-fluoro-1-((6-fluoronaphthalen-2-yl)methyl)-1H-indole-7-carboxamido)spiro[3.3]heptane-2-carboxylic acid] | < 0.001 µM | 0.07 µM
11 | O=C(NC1CC2(C1)CC(C(=O)O)C2)c1ccc(F)c2ccn(Cc3ccc(-c4ccnc(C(F)F)c4)cc3)c12 (stereo not drawn) [Example 64, (Sa)-6-(1-(4-(2-(difluoromethyl)pyridin-4-yl)benzyl)-4-fluoro-1H-indole-7-carboxamido)spiro[3.3]heptane-2-carboxylic acid] | < 0.001 µM | 0.048 µM
12 | O=C(NC1CC2(C1)CC(C(=O)O)C2)c1ccc(Cl)c2ccn(Cc3ccc(-c4ccccc4)cc3)c12 (stereo not drawn) [Example 68, (Sa)-6-(1-([1,1′-biphenyl]-4-ylmethyl)-4-chloro-1H-indole-7-carboxamido)spiro[3.3]heptane-2-carboxylic acid] | < 0.001 µM | < 0.025 µM

More lines, now with the values ahead:

Row | IC50 (EP4) | IC50 (EP2) | SMILES
13 | < 0.001 µM | 0.025 µM | COc1ccc(-c2ccc(Cn3ccc4c(F)ccc(C(=O)NC5CC6(CC(CC(=O)O)C6)C5)c43)cc2)cn1 (stereo not drawn) [Example 138, (Ra)-2-(6-(4-Fluoro-1-(4-(6-methoxypyridin-3-yl)benzyl)-1H-indole-7-carboxamido)spiro[3.3]heptan-2-yl)acetic acid]
14 | 0.0011 µM | 0.055 µM | N#Cc1cccc(-c2ccc(Cn3ncc4c(Cl)ccc(C(=O)NC5CC6(C5)CC(C(=O)O)C6)c43)cc2)c1 (stereo not drawn) [Example 80, (Sa)-6-(4-chloro-1-((3′-cyano-[1,1′-biphenyl]-4-yl)methyl)-1H-indazole-7-carboxamido)spiro[3.3]heptane-2-carboxylic acid]
15 | < 0.001 µM | < 0.025 µM | CCOc1cc(-c2ccc(C(C)n3ncc4c(Cl)ccc(C(=O)NC5CC6(C5)CC(C(=O)O)C6)c43)cc2)ccn1 (single isomer, unassigned) [Example 131, (Sa)-6-(4-chloro-1-((R) or (S)-1-(4-(2-ethoxypyridin-4-yl)phenyl)-ethyl)-1H-indazole-7-carboxamido)spiro[3.3]heptane-2-carboxylic acid]
16 | 0.0018 µM | 0.036 µM | O=C(NC1CC2(C1)CC(C(=O)O)C2)c1ccc(Cl)c2cnn(Cc3ccc(-c4cccc(OC(F)(F)F)n4)cc3)c12 (stereo not drawn) [Example 86]
17 | < 0.001 µM | 0.035 µM | O=C(O)CC1CC2(C1)CC(NC(=O)c1ccc(Cl)c3cnn(Cc4ccc(-c5ccccc5F)cc4)c13)C2 (stereo not drawn) [Example 143, (Ra)-2-(6-(4-Chloro-1-((2′-fluoro-[1,1′-biphenyl]-4-yl)methyl)-1H-indazole-7-carboxamido)spiro[3.3]heptan-2-yl)acetic acid]
18 | 0.0013 µM | < 0.025 µM | COc1cccc(-c2ccc(C(C)n3ncc4cccc(C(=O)NC5CC6(C5)CC(C(=O)O)C6)c43)cc2)c1 (racemic) [Example 113, (Sa)-6-(1-((racemic)-1-(3′-methoxy-[1,1′-bipheny]-4-yl)-ethyl)-1H-indazole-7-carboxamido)spiro[3.3]heptane-2-carboxylic acid]
19 | 0.0038 µM | 0.059 µM | COc1ccc(-c2ccc(C(C)n3ccc4c(F)ccc(C(=O)NC5CC6(C5)CC(C(=O)O)C6)c43)cc2)cn1 (racemic) [Example 119, (Sa)-6-(4-fluoro-1-((racemic)-1-(4-(6-methoxypyridin-3-yl)phenyl)-ethyl)-1H-indole-7-carboxamido)spiro[3.3]heptane-2-carboxylic acid]
20 | 0.0013 µM | 0.097 µM | CCOc1cc(-c2ccc(Cn3ccc4c(OC)ncc(C(=O)NC5CC6(C5)CC(C(=O)O)C6)c43)cc2)ccn1 (stereo not drawn) [Example 89, (Sa)-6-(1-(4-(2-ethoxypyridin-4-yl)benzyl)-4-methoxy-1H-pyrrolo[3,2-c]pyridine-7-carboxamido)spiro[3.3]heptane-2-carboxylic acid]
21 | < 0.001 µM | 0.057 µM | CCOc1ncc(C(=O)NC2CC3(C2)CC(C(=O)O)C3)c2c1ccn2Cc1ccc(-c2ccccc2)cc1 (stereo not drawn) [Example 90, (Sa)-6-(1-([1,1′-biphenyl]-4-ylmethyl)-4-ethoxy-1H-pyrrolo[3,2-c]pyridine-7-carboxamido)spiro[3.3]heptane-2-carboxylic acid]
22 | < 0.001 µM | 0.071 µM | CC(c1ccc(N2C[C@H]3C[C@H]3C2)cc1)n1ncc2c(Cl)ccc(C(=O)NC3CC4(C3)CC(C(=O)O)C4)c21 (mixture of isomers) [Example 77, (Sa)-6-(1-((racemic)-1-(4-((1R,5S)-3-azabicyclo[3.1.0]hexan-3-yl)phenyl)ethyl)-4-chloro-1H-indazole-7-carboxamido)spiro[3.3]heptane-2-carboxylic acid]
23 | 0.0039 µM | < 0.025 µM | CCOc1cc(-c2ccc(C(C)n3ncc4c(Cl)ccc(C(=O)NC5CC6(C5)CC(C(=O)O)C6)c43)cc2)ccn1 (racemic) [Example 124, (Sa)-6-(4-chloro-1-((racemic)-1-(4-(2-ethoxypyridin-4-yl)phenyl)-ethyl)-1H-indazole-7-carboxamido)spiro[3.3]heptane-2-carboxylic acid]
24 | < 0.001 µM | – | N#Cc1ccc(-c2ccc(Cn3ncc4c(Cl)ccc(C(=O)NC5CC6(CC(CC(=O)O)C6)C5)c43)cc2)cc1 (stereo not drawn) [Example 145, (Ra)-2-(6-(4-Chloro-1-((4′-cyano-[1,1′-biphenyl]-4-yl)methyl)-1H-indazole-7-carboxamido)spiro[3.3]heptan-2-yl)acetic acid]
25 | 0.0012 µM | < 0.025 µM | CC(c1ccc(-c2ccccc2)cc1)n1ccc2c(F)ccc(C(=O)NC3CC4(C3)CC(C(=O)O)C4)c21 (single isomer, unassigned) [Example 127, (Sa)-6-(1-((R) or (S)-1-([1,1′-biphenyl]-4-yl)-ethyl)-4-fluoro-1H-indole-7-carboxamido)spiro[3.3]heptane-2-carboxylic acid]
26 | < 0.001 µM | 0.065 µM | COc1cc(C(=O)NC2CC3(C2)CC(C(=O)O)C3)c2c(cnn2Cc2ccc(-c3ccccc3)cc2)c1 (stereo not drawn) [Example 159, (Sa)-6-(1-([1,1′-Biphenyl]-4-ylmethyl)-5-methoxy-1H-indazole-7-carboxamido)spiro[3.3]heptane-2-carboxylic acid]
27 | < 0.001 µM | < 0.025 µM | COc1ccc2cc(-c3ccc(Cn4ncc5cc(Cl)cc(C(=O)NC6CC7(CC(CC(=O)O)C7)C6)c54)cc3)ccc2n1 (stereo not drawn) [Example 147, (Ra)-2-(6-(5-Chloro-1-(4-(2-methoxyquinolin-6-yl)benzyl)-1H-indazole-7-carboxamido)spiro[3.3]heptan-2-yl)acetic acid]
28 | 0.0072 µM | < 0.025 µM | CC(c1ccc(-c2ccccc2)cc1)n1ncc2cc(Cl)cc(C(=O)NC3CC4(C3)CC(C(=O)O)C4)c21 (racemic) [Example 173, (Sa)-6-(1-((racemic)1-([1,1′-Biphenyl]-4-yl)ethyl)-5-chloro-1H-indazole-7-carboxamido)spiro[3.3]heptane-2-carboxylic acid]
